Measured values as given in publication PMC7093416, “Selective USP7 inhibition elicits cancer cell killing through a p53-dependent mechanism” (Scientific Reports, 2020).

Tested on: panel of 484 cancer cell lines
Experiment: PRISM cancer cell line profiling, 5 days
Format: cell-based
Design: AUC: unit not given beside the values
Experimental: Cancer cell line profiling was performed using the Broad’s PRISM platform. Cell treatment and data analysis were performed as described in Yu et al[42]. Raw Luminex signal was converted to AUC values for each cell line as described. The resulting AUC profile for each compound was modeled against DepMap using the limma package in R[71]. Because hotspot mutation analysis was performed against DepMap, TP53 annotations in Fig. 6c,d are directly from DepMap.

Compound: CN1CCN(CCC(=O)Nc2ccc3c(=O)n(CC4(O)CCN(C(=O)[C@H](CCCNC(=O)c5ccc6c(Cl)c7c(nc6c5)CCCC7)Cc5ccccc5)CC4)cnc3c2)CC1 [XL177B]
- AUC (8MGBA_CENTRAL_NERVOUS_SYSTEM): 1.054
- AUC (22RV1_PROSTATE): 1.093
- AUC (42MGBA_CENTRAL_NERVOUS_SYSTEM): 1.146
- AUC (253JBV_URINARY_TRACT): 1.057
- AUC (253J_URINARY_TRACT): 1.086
- AUC (639V_URINARY_TRACT): 1.062
- AUC (647V_URINARY_TRACT): 1.143
- AUC (769P_KIDNEY): 1.004
- AUC (786O_KIDNEY): 1.051
- AUC (5637_URINARY_TRACT): 0.9181
- AUC (8305C_THYROID): 1.192
- AUC (8505C_THYROID): 0.9816
- AUC (2313287_STOMACH): 1.329
- AUC (A101D_SKIN): 1.213
- AUC (A172_CENTRAL_NERVOUS_SYSTEM): 1.079
- AUC (A204_SOFT_TISSUE): 1.022
- AUC (A375_SKIN): 1.179
- AUC (A549_LUNG): 1.079
- AUC (A673_BONE): 1.28
- AUC (A704_KIDNEY): 1.217
- AUC (A2058_SKIN): 1.197
- AUC (A2780_OVARY): 1.076
- AUC (ABC1_LUNG): 1.075
- AUC (ACCMESO1_PLEURA): 0.9927
- AUC (ACHN_KIDNEY): 1.273
- AUC (AGS_STOMACH): 1.102
- AUC (AN3CA_ENDOMETRIUM): 1.099
- AUC (ASPC1_PANCREAS): 1.162
- AUC (BC3C_URINARY_TRACT): 1.114
- AUC (BCPAP_THYROID): 1.195
- AUC (BECKER_CENTRAL_NERVOUS_SYSTEM): 1.058
- AUC (BEN_LUNG): 1.091
- AUC (BFTC905_URINARY_TRACT): 1.11
- AUC (BFTC909_KIDNEY): 1.1037
- AUC (BHT101_THYROID): 1.056
- AUC (BICR6_UPPER_AERODIGESTIVE_TRACT): 0.9836
- AUC (BICR16_UPPER_AERODIGESTIVE_TRACT): 1.161
- AUC (BICR31_UPPER_AERODIGESTIVE_TRACT): 0.9322
- AUC (BICR56_UPPER_AERODIGESTIVE_TRACT): 0.9864
- AUC (BT474_BREAST): 1.187
- AUC (BT549_BREAST): 0.9575
- AUC (BXPC3_PANCREAS): 1.32
- AUC (CADOES1_BONE): 1.116
- AUC (CAKI1_KIDNEY): 1.162
- AUC (CAL12T_LUNG): 1
- AUC (CAL27_UPPER_AERODIGESTIVE_TRACT): 1.104
- AUC (CAL29_URINARY_TRACT): 1.1383
- AUC (CAL51_BREAST): 1.013
- AUC (CAL54_KIDNEY): 1.167
- AUC (CAL62_THYROID): 1.094
- AUC (CAL78_BONE): 1.0528
- AUC (CAL120_BREAST): 0.9632
- AUC (CALU1_LUNG): 0.8074
- AUC (CALU6_LUNG): 1.057
- AUC (CAMA1_BREAST): 1.095
- AUC (CAOV3_OVARY): 1.1
- AUC (CAPAN2_PANCREAS): 1.138
- AUC (CCFSTTG1_CENTRAL_NERVOUS_SYSTEM): 0.9645
- AUC (CFPAC1_PANCREAS): 1.136
- AUC (CHL1_SKIN): 1.081
- AUC (CJM_SKIN): 1.284
- AUC (CL34_LARGE_INTESTINE): 1.203
- AUC (COLO668_LUNG): 1.113
- AUC (COLO679_SKIN): 1.002
- AUC (COLO680N_OESOPHAGUS): 1.0645
- AUC (COLO741_SKIN): 1.159
- AUC (COLO783_SKIN): 1.1
- AUC (COLO792_SKIN): 1.078
- AUC (COLO800_SKIN): 1.008
- AUC (CORL23_LUNG): 1.07
- AUC (CORL105_LUNG): 1.1478
- AUC (COV362_OVARY): 1.091
- AUC (COV434_OVARY): 0.9992
- AUC (DANG_PANCREAS): 1.066
- AUC (DAOY_CENTRAL_NERVOUS_SYSTEM): 0.9946
- AUC (DBTRG05MG_CENTRAL_NERVOUS_SYSTEM): 1.141
- AUC (DETROIT562_UPPER_AERODIGESTIVE_TRACT): 1.072
- AUC (DKMG_CENTRAL_NERVOUS_SYSTEM): 1.0187
- AUC (DMS273_LUNG): 1.134
- AUC (DU145_PROSTATE): 1.137
- AUC (DV90_LUNG): 0.9062
- ∆ (AUC, TP53 mutation vs WT; decreased sensitivity) (DepMap TP53 mutation annotation): not significantly associated
- AUC (EBC1_LUNG): 1.133
- AUC (ECGI10_OESOPHAGUS): 1.109
- AUC (EFM192A_BREAST): 0.9815
- AUC (EFO21_OVARY): 1.192
- AUC (EFO27_OVARY): 1.165
- AUC (EN_ENDOMETRIUM): 1.137
- AUC (ES2_OVARY): 1.077
- AUC (ESS1_ENDOMETRIUM): 1.338
- AUC (EWS502_BONE): 1.036
- AUC (FADU_UPPER_AERODIGESTIVE_TRACT): 1.234
- AUC (FTC133_THYROID): 0.9765
- AUC (FTC238_THYROID): 0.9864
- AUC (G292CLONEA141B1_BONE): 1.035
- AUC (G361_SKIN): 1.116
- AUC (G401_SOFT_TISSUE): 0.7376
- AUC (G402_SOFT_TISSUE): 0.8902
- AUC (GAMG_CENTRAL_NERVOUS_SYSTEM): 1.162
- AUC (GB1_CENTRAL_NERVOUS_SYSTEM): 1.065
- AUC (GCIY_STOMACH): 0.9556
- AUC (GCT_SOFT_TISSUE): 1.093
- AUC (GI1_CENTRAL_NERVOUS_SYSTEM): 0.984
- AUC (GMS10_CENTRAL_NERVOUS_SYSTEM): 0.9403
- AUC (GOS3_CENTRAL_NERVOUS_SYSTEM): 0.9659
- AUC (GP2D_LARGE_INTESTINE): 1.185
- AUC (H4_CENTRAL_NERVOUS_SYSTEM): 1.05
- AUC (HARA_LUNG): 1.202
- AUC (HCC15_LUNG): 1.143
- AUC (HCC38_BREAST): 1.103
- AUC (HCC44_LUNG): 1.112
- AUC (HCC56_LARGE_INTESTINE): 1.103
- AUC (HCC78_LUNG): 1.106
- AUC (HCC95_LUNG): 1.096
- AUC (HCC366_LUNG): 1.065
- AUC (HCC827_LUNG): 0.9535
- AUC (HCC1143_BREAST): 1.163
- AUC (HCC1195_LUNG): 0.8866
- AUC (HCC1359_LUNG): 1.197
- AUC (HCC1419_BREAST): 1.107
- AUC (HCC1428_BREAST): 0.9597
